Results on 3 molecules are retold here after PMC12145446, “Development of an AI model for DILI-level prediction using liver organoid brightfield images” (Communications Biology, 2025).

In general, Cmax refers to the highest concentration seen after dosing.

For series [1] the following is noted: cited from earlier work; for Label section / Severity class: DILIrank; for Label section: FDA drug label section; for DILIrank: FDA DILIrank category based on clinical data.
The subject of series [2] is HepG2 spheroids. The series is described as follows: Cellular viability (ATP, CellTiter-Glo) in the DILI toxicity test on HepG2 spheroids. Type of series: cell-based. The following applies: 10*Cmax, end of Day 3 (72 h), individual replicates n = 3, unit from Fig. S4 legend. The procedure:
(§1) The HepG2 cells were donated by Avatarget Co., Ltd (Suzhou, China). The HepG2 cells were cultured in DMEM (Gibco, 10567014) containing 10% fetal bovine serum (GIBCO, A3161001C), and 1×penicillin/streptomycin (Gibco, 15140148). HepG2 cells (70–80% cell confluency) were washed twice in sterile PBS and then dissociated with 1 mL 0.25% EDTA-Trypsin. Using 3×volume of the complete medium neutralized with reagent above, count cells and ensure 10,000 cells/well. The desired volume of cell suspension was inoculated into the 200 μL/well of ultra-low attachment microplate (Corning, 7007). The plate was centrifuged at 1500 rpm for 10 min and then incubated in an incubator at 37 °C in 5% CO2 for 4 days. The medium is changed every other day at a 1:1 ratio.
(§2) The peak serum concentration (Cmax) can intuitively reflect the actual presence level of a drug in the body’s circulatory system. Therefore, we used 1*Cmax as a reference for the drug dosage to better approximate the in vivo conditions. On this basis, we selected 10*Cmax as the reference concentration, taking into account the coefficient of variation in toxicology (individual variability: tenfold). […] Each drug was tested in triplicate. Plates were dosed with the drug for 72 h in each cycle (referred to as Day 0 through Day 3). […] At the end of day 3, the supernatant from each well was collected to determine ALB secretion, and the spheroids from each well were used for the cell viability assay. The Cmax information of the drugs is shown in Supplementary Table 3.
CellTiter-Glo (CTG, G9681, PROMEGA) reagent and culture medium were added to each well in a 1:1 ratio. The contents were mixed for 2 min to induce cell lysis. The plate was incubated at room temperature for 10 min to stabilize the luminescent signal. Recording of luminescence was carried out with BioTek Microplate Reader Synergy H1 (Vermont, USA).

The test system of series [3] is HepG2 spheroids. The series is described as follows: ALB secretion (Human Albumin ELISA) in the DILI toxicity test on HepG2 spheroids. The following applies: 10*Cmax, end of Day 3 (72 h), individual replicates n = 3, unit from Fig. S3 legend. Type of series: cell-based. The protocol:
as §1, §2
The culture supernatants were collected and stored at −80 °C until use. The supernatant was assayed with a Human Albumin ELISA Kit (PROTEINTECH, KE00076). Assays were performed according to the manufacturer’s instructions.

The conditions of series [4]: peak serum concentration used as dosing reference; source not given; cited from earlier work.

Where “and” joins values, the source holds several entries; their conditions need not be identical. Equal entries are not always repeated.

For the molecule `O=P1(N(CCCl)CCCl)NCCCO1` (stereo not shown) [Cyclophosphamide], in series [1], the Label section result was “Adverse reactions”, the Severity class was 5 and the DILIrank result is given as “vLess-DILI-Concern”. In addition, the ATP inhibition with HepG2 spheroids [2] was 36% and 26% and 38%. In addition, the ALB inhibition in the series with HepG2 spheroids [3] is 90% and 54% and 78%. Further, the Cmax in series [4] was 69000 ng/mL.
Regarding `N[C@@H]1[C@H]2CN(c3nc4c(cc3F)c(=O)c(C(=O)O)cn4-c3ccc(F)cc3F)C[C@@H]12` [Trovafloxacin], the Label section result in series [1] is “Withdrawn”. Also, the ATP inhibition in the series with HepG2 spheroids [2] is 52% and 58%. In the series on HepG2 spheroids [3], the ALB inhibition was 28% and 76% and 63%. The Cmax in series [4] was 2090 ng/mL.
In the case of `C[C@]12CCC(=O)C=C1CC[C@@H]1[C@@H]2[C@@H](O)C[C@@]2(C)[C@H]1CC[C@]2(O)C(=O)CO` [Hydrocortisone], in series [1], the Label section entry is given as “No match”, the Severity class was 0 and the DILIrank entry is listed as “vNo-DILI-Concern”. In addition, the ATP inhibition with HepG2 spheroids [2] is -17% and -20% and -30%. Besides, the ALB inhibition with HepG2 spheroids [3] is -33% and -30% and -26%. Also, the Cmax in series [4] was 305 ng/mL.
